Counter-ions that a name gives are not always drawn. Like-named read-outs stand apart in the source and are kept apart here.
Legend:
GSK3α or GSK3B = assay: Measured Km for ATP in the GSK3 in vitro enzymatic activity assay; type: biochemical, human; details: role: substrate; 100 mM HEPES pH 7.5, 10 mM MgCl2; 1.0 μM peptide substrate (5-FAM-KRREILSRRPpSYR-COOH); 25° C.
Procedure: Full length human GSK3α or GSK3B expressed as N-terminal GST fusion proteins in baculovirus host were purchased from Carna Biosciences (Japan). The kinase was pre-incubated with ATP (adenosine-5′-triphosphate) for 45 min, then incubated with tested compounds for another 45 min in assay buffer that contains 100 mM HEPES (N-2-hydroxyethylpiperazine-N′-2-ethanesulfonic acid), pH 7.5, 10 mM MgCl2, 1.0 mM DTT, and 0.015% Briji-35. […] Percent inhibition was plotted against compound concentration to generate 10-point dose response curve with 3-fold serial dilution starting from 10 μM. IC50 value was determined from the 4-parameter logistic curve fitting.

human GSK3α = molecular target: T1, human GSK3α (Homo sapiens, UniProt P49840); assay: In vitro enzymatic activity assay, GSK3α; type: biochemical; details: 1.0 mM ATP, 1.0 μM peptide substrate, 120 min, 25° C
T1 construct: Full length human GSK3α or GSK3B expressed as N-terminal GST fusion proteins; GST (N); purchased Carna Biosciences (Japan); host or cells: baculovirus host

GSK3A = molecular target: T2, GSK3A (Homo sapiens, UniProt P49840); assay: NanoBRET cellular target engagement assay, Nanoluc-GSK3A in HEK293 cells; type: cell-based; details: NanoBRET GSK3α IC50, HEK293 cells, tracer K-8, 2 hours, 37° C
T2 construct: expressed in transfected cells

GSK3B [1] = molecular target: T3, GSK3B (Homo sapiens, UniProt P49841); assay: NanoBRET cellular target engagement assay, Nanoluc-GSK3B in HEK293 cells; type: cell-based; set-up: expressed in transfected cells; details: NanoBRET GSK3β IC50, HEK293 cells, tracer K-8, 2 hours, 37° C
GSK3B [2] = molecular target: T3, GSK3B; assay: In vitro enzymatic activity assay, GSK3β; type: biochemical; set-up: Full length human GSK3α or GSK3B expressed as N-terminal GST fusion proteins; GST (N); purchased Carna Biosciences (Japan); host or cells: baculovirus host; details: 1.0 mM ATP, 1.0 μM peptide substrate, 120 min, 25° C
GSK3α knockout mice = details: blockade of autophagy and mTOR pathway activation; cited from earlier work

T1 sequence (P49840 whole entry, the tested form may be a part): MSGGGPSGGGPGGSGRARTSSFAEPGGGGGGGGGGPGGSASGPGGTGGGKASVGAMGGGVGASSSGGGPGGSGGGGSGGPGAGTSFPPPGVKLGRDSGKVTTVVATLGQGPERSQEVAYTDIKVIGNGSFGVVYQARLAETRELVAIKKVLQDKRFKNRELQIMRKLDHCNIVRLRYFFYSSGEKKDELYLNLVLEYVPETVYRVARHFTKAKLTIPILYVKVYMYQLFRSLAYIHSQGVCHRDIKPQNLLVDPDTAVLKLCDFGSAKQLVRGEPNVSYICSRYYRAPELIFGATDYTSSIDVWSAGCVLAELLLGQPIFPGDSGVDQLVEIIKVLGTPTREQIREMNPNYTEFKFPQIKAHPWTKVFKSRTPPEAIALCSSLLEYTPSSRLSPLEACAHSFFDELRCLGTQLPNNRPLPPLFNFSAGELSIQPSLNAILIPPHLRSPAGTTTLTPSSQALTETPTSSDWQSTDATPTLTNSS
T2 sequence (P49840 whole entry): as the sequence (P49840 whole entry, the tested form may be a part) above
T3 sequence (P49841 whole entry, the tested form may be a part): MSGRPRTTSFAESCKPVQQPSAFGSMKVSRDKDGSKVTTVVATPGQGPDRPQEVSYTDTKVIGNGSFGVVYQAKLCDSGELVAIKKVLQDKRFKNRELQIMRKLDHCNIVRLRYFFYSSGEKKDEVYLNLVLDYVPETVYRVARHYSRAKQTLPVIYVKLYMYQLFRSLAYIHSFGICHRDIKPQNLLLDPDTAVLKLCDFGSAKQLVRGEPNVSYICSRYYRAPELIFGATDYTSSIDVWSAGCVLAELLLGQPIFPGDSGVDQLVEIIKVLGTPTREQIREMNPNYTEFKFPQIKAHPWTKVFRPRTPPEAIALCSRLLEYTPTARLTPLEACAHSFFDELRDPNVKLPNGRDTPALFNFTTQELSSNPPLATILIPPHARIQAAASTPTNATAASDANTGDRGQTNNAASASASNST

IC50 (human GSK3α; read-out: Enzyme GSK3α (IC50)) [nM] | IC50 (GSK3A) [nM] | IC50 (GSK3B [1]) [nM] | IC50 (GSK3B [2]; read-out: Enzyme GSK3β (IC50)) [nM] | IC50 (human GSK3α; Enzyme GSK3α (IC50)) [nM] | IC50 (GSK3B [2]; Enzyme GSK3β (IC50)) [nM] | Structure (SMILES) | Km (GSK3α or GSK3B) [µM] | reversal of mild aging phenotypes of GSK3α knockout mice (GSK3α knockout mice)
5 | 3.7 | 204 | 238 | – | – | COc1cc(C)c(-n2cnc(N)c(C(=O)Nc3cncc([C@H]4CCCCN4)c3)c2=O)c(C)c1 [Example 205, (R)-4-amino-1-(4-methoxy-2,6-dimethylphenyl)-6-oxo-N-(5-(piperidin-2-yl)pyridin-3-yl)-1,6-dihydropyrimidine-5-carboxamide] | – | –
– | 966 | 25000 | – | 5.3 | 234 | Cc1cc(CC(=O)O)cc(C)c1-n1cnc(N)c(C(=O)Nc2cncc([C@H]3CCCCN3)c2)c1=O [Example 207, (R)-2-(4-(4-amino-6-oxo-5-((5-(piperidin-2-yl)pyridin-3-yl)carbamoyl)pyrimidin-1 (6H)-yl)-3,5-dimethylphenyl) acetic acid] | – | –
5.2 | 5.9 | 300 | 383 | – | – | Nc1ncn(-c2c(Cl)cc(N3CCC3)cc2Cl)c(=O)c1C(=O)Nc1cncc([C@@H]2CCCCN2)c1 [Example 209, (S)-4-amino-1-(4-(azetidin-1-yl)-2,6-dichlorophenyl)-6-oxo-N-(5-(piperidin-2-yl)pyridin-3-yl)-1,6-dihydropyrimidine-5-carboxamide] | – | –
5.6 | 3.4 | 173 | 293 | – | – | Cc1cc(C(F)(F)F)cc(C)c1-n1cnc(N)c(C(=O)Nc2cncc([C@H]3CCCCN3)c2)c1=O [Example 216, (R)-4-amino-1-(2,6-dimethyl-4-(trifluoromethyl)phenyl)-6-oxo-N-(5-(piperidin-2-yl)pyridin-3-yl)-1,6-dihydropyrimidine-5-carboxamide] | – | –
11.7 | 8.1 | 259 | 308 | – | – | CCOc1c(CN)cccc1NC(=O)c1c(N)ncn(-c2c(Cl)cccc2Cl)c1=O [Example 220, 4-amino-N-(3-(aminomethyl)-2-ethoxyphenyl)-1-(2,6-dichlorophenyl)-6-oxo-1,6-dihydropyrimidine-5-carboxamide] | – | –
15.6 | 7.3 | 235 | 400 | – | – | COc1c(CN)cccc1NC(=O)c1c(N)ncn(-c2c(Cl)cccc2Cl)c1=O [Example 221, 4-amino-N-(3-(aminomethyl)-2-methoxyphenyl)-1-(2,6-dichlorophenyl)-6-oxo-1,6-dihydropyrimidine-5-carboxamide trifluoroacetate] | – | –

The next lines start with the compound.

Structure (SMILES) | IC50 (human GSK3α; read-out: Enzyme GSK3α (IC50)) [nM] | IC50 (GSK3A) [nM] | IC50 (GSK3B [1]) [nM] | IC50 (GSK3B [2]; read-out: Enzyme GSK3β (IC50)) [nM] | IC50 (human GSK3α; Enzyme GSK3α (IC50)) [nM] | IC50 (GSK3B [2]; Enzyme GSK3β (IC50)) [nM] | Km (GSK3α or GSK3B) [µM] | reversal of mild aging phenotypes of GSK3α knockout mice (GSK3α knockout mice)
Nc1ncnc2c1ncn2[C@@H]1O[C@H](COP(=O)(O)OP(=O)(O)OP(=O)(O)O)[C@@H](O)[C@H]1O [ATP, adenosine-5′-triphosphate] | – | – | – | – | – | – | 10 to 15 | –
CCNCc1cncc(NC(=O)c2c(N)ncn(-c3c(Cl)cc(-c4ncco4)cc3Cl)c2=O)c1 [Example 201, 4-amino-1-(2,6-dichloro-4-(oxazol-2-yl)phenyl)-N-(5-((ethylamino)methyl)pyridin-3-yl)-6-oxo-1,6-dihydropyrimidine-5-carboxamide] | 13.7 | 7.4 | 430 | 608 | – | – | – | –
CCNCc1cncc(NC(=O)c2c(N)ncn(-c3c(Cl)cc(CC(F)(F)F)cc3Cl)c2=O)c1 [Example 202, 4-amino-1-(2,6-dichloro-4-(2,2,2-trifluoroethyl)phenyl)-N-(5-((ethylamino)methyl)pyridin-3-yl)-6-oxo-1,6-dihydropyrimidine-5-carboxamide] | 8.7 | 5.9 | 385 | 432 | – | – | – | –
CCNCc1cncc(NC(=O)c2c(N)ncn(-c3c(Cl)cc(CC(F)F)cc3Cl)c2=O)c1 [Example 203, 4-amino-1-(2,6-dichloro-4-(2,2-difluoroethyl)phenyl)-N-(5-((ethylamino)methyl)pyridin-3-yl)-6-oxo-1,6-dihydropyrimidine-5-carboxamide] | 8 | 3.7 | 293 | 318 | – | – | – | –
CO[C@H]1C[C@@H]2CC[C@@H](C)[C@@](O)(O2)C(=O)C(=O)N2CCCC[C@H]2C(=O)O[C@H]([C@H](C)C[C@@H]2CC[C@@H](OCCO)[C@H](OC)C2)CC(=O)[C@H](C)/C=C(\C)[C@@H](O)[C@@H](OC)C(=O)[C@H](C)C[C@H](C)/C=C/C=C/C=C/1C [everolimus] | – | – | – | – | – | – | – | could be reversed

From patent publication US20260327191A1, “GSK3a INHIBITORS AND METHODS OF USE THEREOF” (Blueprint Medicines Corporation, priority 2023, published 2026)
